Values joined by “and” are separate entries in the source; they are usually repeats but may differ in a detail not shown here. Equal values may be shown once. Inconclusive results and toxic doses are left out. Rule as the data show it: active = T/C of 150% or more; inactive = T/C below 125%.
Test system: L1210 leukemia ip in BDF1 mice, survival T/C
Test: NCI In Vivo Anticancer Drug Screen. Data for tumor model L1210 Leukemia (intraperitoneal) in B6D2F1 (BDF1) mice
Settings: endpoint: mean survival time, higher = longer survival
Description: The antitumor activity of compounds was measured in mice bearing transplantable tumors. Survival or tumor size were measured and the results are expressed as the measurement made in the treated group (T) divided by the measurement made in the vehicle treated control group (C). The tumor model used in this assay is L1210 Leukemia (intraperitoneal) in B6D2F1 (BDF1) mice

[1] = dose: 100.0 mg/kg/injection, schedule: Q01DX001 (ip), vehicle: other
[2] = dose: 200.0 mg/kg/injection, schedule: Q01DX001 (ip), vehicle: other
[3] = dose: 400.0 mg/kg/injection, schedule: Q01DX001 (ip), vehicle: other
[4] = dose: 100.0 mg/kg/injection, schedule: Q01DX001 (ip), vehicle: carboxymethylcellulose (CMC)
[5] = dose: 200.0 mg/kg/injection, schedule: Q01DX001 (ip), vehicle: carboxymethylcellulose (CMC)
[6] = dose: 50.0 mg/kg/injection, schedule: Q01DX001 (ip), vehicle: saline with Tween-80
[7] = dose: 50.0 mg/kg/injection, schedule: Q04DX003 (ip), vehicle: saline with Tween-80
[8] = dose: 100.0 mg/kg/injection, schedule: Q01DX001 (ip), vehicle: saline with Tween-80
[9] = dose: 100.0 mg/kg/injection, schedule: Q01DX009 (ip), vehicle: saline with Tween-80
[10] = dose: 100.0 mg/kg/injection, schedule: Q04DX003 (ip), vehicle: saline with Tween-80
[11] = dose: 200.0 mg/kg/injection, schedule: Q01DX001 (ip), vehicle: saline with Tween-80
[12] = dose: 200.0 mg/kg/injection, schedule: Q01DX009 (ip), vehicle: saline with Tween-80
[13] = dose: 200.0 mg/kg/injection, schedule: Q04DX003 (ip), vehicle: saline with Tween-80
[14] = dose: 100.0 mg/kg/injection, schedule: Q01DX001 (ip), vehicle: saline
[15] = dose: 200.0 mg/kg/injection, schedule: Q01DX001 (ip), vehicle: saline
[16] = dose: 400.0 mg/kg/injection, schedule: Q01DX001 (ip), vehicle: saline
[17] = dose: 100.0 mg/kg/injection, schedule: Q04DX003 (ip), vehicle: Klucel (hydroxypropylcellulose) (HPC)
[18] = dose: 200.0 mg/kg/injection, schedule: Q04DX003 (ip), vehicle: Klucel (hydroxypropylcellulose) (HPC)
[19] = dose: 400.0 mg/kg/injection, schedule: Q04DX003 (ip), vehicle: Klucel (hydroxypropylcellulose) (HPC)
[20] = dose: 100.0 mg/kg/injection, schedule: Q04DX003 (ip), vehicle: other
[21] = dose: 200.0 mg/kg/injection, schedule: Q04DX003 (ip), vehicle: other
[22] = dose: 400.0 mg/kg/injection, schedule: Q04DX003 (ip), vehicle: other

Measured: T/C

COc1cc2c(cc1OC)N(C(C)=O)Cc1ccc(C=O)n1C2
inactive: dose: 25.0 mg/kg/injection, schedule: Q04DX002 (ip), vehicle: Klucel (hydroxypropylcellulose) (HPC) 105 % of control | dose: 50.0 mg/kg/injection, schedule: Q04DX002 (ip), vehicle: Klucel (hydroxypropylcellulose) (HPC) 97 % of control | dose: 100.0 mg/kg/injection, schedule: Q04DX002 (ip), vehicle: Klucel (hydroxypropylcellulose) (HPC) 90 % of control

CCOC(=O)c1nc[nH]c1N=[N+]=[N-]
inactive: [1] 106 % of control | [2] 97 % of control | [3] 95 % of control

Nc1nc(N)c(N=O)c(Nc2ccc(I)cc2)n1
inactive: dose: 40.0 mg/kg/injection, schedule: Q01DX Z (ip), vehicle: carboxymethylcellulose (CMC) 102 % of control | dose: 50.0 mg/kg/injection, schedule: Q01DX009 (ip), vehicle: acetone 108 % of control | dose: 50.0 mg/kg/injection, schedule: Q04DX003 (ip), vehicle: carboxymethylcellulose (CMC) 109 % of control | dose: 60.0 mg/kg/injection, schedule: Q01DX Z (ip), vehicle: carboxymethylcellulose (CMC) 104 % of control | dose: 90.0 mg/kg/injection, schedule: Q01DX Z (ip), vehicle: carboxymethylcellulose (CMC) 88 % of control | [4] 101 % of control | dose: 100.0 mg/kg/injection, schedule: Q01DX009 (ip), vehicle: acetone 106 % of control | dose: 100.0 mg/kg/injection, schedule: Q04DX003 (ip), vehicle: carboxymethylcellulose (CMC) 106 % of control | dose: 135.0 mg/kg/injection, schedule: Q01DX Z (ip), vehicle: carboxymethylcellulose (CMC) 89 % of control | [5] 101 % of control | dose: 200.0 mg/kg/injection, schedule: Q04DX003 (ip), vehicle: carboxymethylcellulose (CMC) 96 % of control

[O]=[Sn]([c]1ccccc1)[c]1ccccc1
active: dose: 64.0 mg/kg/injection, schedule: Q04DX002 (ip), vehicle: saline with Tween-80 313 % of control

O=C(CCCl)Oc1c(Cl)c(Cl)c(Cl)c(Cl)c1Cl
inactive: [6] 98 % of control | dose: 50.0 mg/kg/injection, schedule: Q01DX009 (ip), vehicle: saline with Tween-80 111 % of control | [7] 95 % of control | [8] 96 % of control | [9] 103 % of control | [10] 97 % of control | [11] 100 % of control | [12] 100 % of control | [13] 93 % of control

CS(=O)(=O)CC1OC(n2nnc3c(N)ncnc32)C(O)C1O (centres undefined)
inactive: [6] 94 % of control | [8] 102 % of control | [11] 94 % of control

ClCCCCOCC1CCCO1 (centres undefined)
inactive: [9] 100 % of control | [12] 107 % of control

NCC(=O)c1ccc(Cl)cc1
inactive: [14] 102 % of control | [15] 104 % of control

CC(=O)/C=C\c1ccc(Cl)cc1
inactive: [14] 106 % of control | [15] 98 % of control | [16] 106 % of control

CCOC(=O)c1c(C)[nH]c2c1C(=O)C(=O)C=C2
inactive: [14] 90 % of control

Cc1sc(Cc2ccccc2)nc1-c1ccc(N=Cc2ccc(N(CCOS(C)(=O)=O)CCOS(C)(=O)=O)cc2)cc1
inactive: dose: 25.0 mg/kg/injection, schedule: Q04DX003 (ip), vehicle: saline with Tween-80 113 % of control | [7] 123 % of control | [10] 107 % of control and 114 % of control

CCOC(=O)c1cnc(SC)nc1NN=C(C)C
inactive: [17] 92 % of control | [18] 95 % of control | [19] 93 % of control

O=C(O)CCN(c1ccccc1)S(=O)(=O)c1ccccc1
inactive: [14] 94 % of control | [15] 94 % of control | [16] 94 % of control

O=C(O)C(CS)NS(=O)(=O)Cc1ccccc1 (centres undefined)
inactive: [1] 104 % of control | [2] 94 % of control | [3] 100 % of control

O=C(O)CCc1c2ccc(=O)cc-2oc2cc(O)ccc12
inactive: [17] 91 % of control | [18] 91 % of control | [19] 92 % of control

[Cu+2].[NH-]C(CC(=O)O)C(=O)O.[NH-]C(CC(=O)O)C(=O)O (centres undefined)
inactive: dose: 5.0 mg/kg/injection, schedule: Q01DX001 (ip), vehicle: saline 96 % of control | dose: 10.0 mg/kg/injection, schedule: Q01DX001 (ip), vehicle: saline 96 % of control | dose: 20.0 mg/kg/injection, schedule: Q01DX001 (ip), vehicle: saline 91 % of control | dose: 40.0 mg/kg/injection, schedule: Q01DX001 (ip), vehicle: saline 96 % of control

COc1cc2cc3c4cc(OC)c(OC)cc4cc[n+]3c(/C=C/c3cc([N+](=O)[O-])ccc3O)c2cc1OC
inactive: [1] 97 % of control and 100 % of control | dose: 100.0 mg/kg/injection, schedule: Q04DX002 (ip), vehicle: other 112 % of control and 92 % of control | [20] 106 % of control | [2] 97 % of control and 103 % of control | dose: 200.0 mg/kg/injection, schedule: Q04DX002 (ip), vehicle: other 95 % of control and 88 % of control | [21] 106 % of control | [3] 96 % of control and 107 % of control | dose: 400.0 mg/kg/injection, schedule: Q04DX002 (ip), vehicle: other 94 % of control and 98 % of control | [22] 101 % of control

C=CC(C)=O.C=CC(C)=O.C=CC(C)=O.[W]
inactive: [20] 94 % of control | [21] 92 % of control | [22] 97 % of control

Clc1ccc([I+]c2ccc(Cl)c(Cl)c2)cc1Cl
inactive: dose: 4.0 mg/kg/injection, schedule: Q01DX015 (ip), vehicle: carboxymethylcellulose (CMC) 98 % of control | dose: 8.0 mg/kg/injection, schedule: Q01DX015 (ip), vehicle: carboxymethylcellulose (CMC) 96 % of control | dose: 16.0 mg/kg/injection, schedule: Q01DX015 (ip), vehicle: carboxymethylcellulose (CMC) 87 % of control | dose: 32.0 mg/kg/injection, schedule: Q01DX015 (ip), vehicle: carboxymethylcellulose (CMC) 96 % of control | [4] 95 % of control | [5] 106 % of control | dose: 400.0 mg/kg/injection, schedule: Q01DX001 (ip), vehicle: carboxymethylcellulose (CMC) 111 % of control

CN(C(=O)c1ccccc1C(=O)N(C)c1ccccc1)c1ccccc1
inactive: [14] 109 % of control | [15] 109 % of control | [16] 97 % of control

O=S(=O)(Cl)c1ccc(Oc2ccc(S(=O)(=O)Cl)cc2)cc1
inactive: dose: 50.0 mg/kg/injection, schedule: Q01DX001 (ip), vehicle: saline 105 % of control | [14] 94 % of control | [15] 105 % of control | [16] 90 % of control

CN(C)CCCC1(C#N)c2ccccc2CCc2ccccc21
inactive: dose: 6.25 mg/kg/injection, schedule: Q01DX009 (ip), vehicle: saline 102 % of control | dose: 12.5 mg/kg/injection, schedule: Q01DX009 (ip), vehicle: saline 105 % of control | dose: 25.0 mg/kg/injection, schedule: Q01DX009 (ip), vehicle: saline 103 % of control | dose: 25.0 mg/kg/injection, schedule: Q04DX003 (ip), vehicle: saline 100 % of control | dose: 50.0 mg/kg/injection, schedule: Q01DX009 (ip), vehicle: saline 113 % of control | dose: 50.0 mg/kg/injection, schedule: Q04DX003 (ip), vehicle: saline 100 % of control | dose: 100.0 mg/kg/injection, schedule: Q04DX003 (ip), vehicle: saline 102 % of control

O=C(NNC(=O)c1ccc([N+](=O)[O-])cc1)c1ccccc1
inactive: dose: 100.0 mg/kg/injection, schedule: Q01DX009 (ip), vehicle: Klucel (hydroxypropylcellulose) (HPC) 96 % of control | [17] 105 % of control | dose: 200.0 mg/kg/injection, schedule: Q01DX009 (ip), vehicle: Klucel (hydroxypropylcellulose) (HPC) 101 % of control | [18] 103 % of control | dose: 400.0 mg/kg/injection, schedule: Q01DX009 (ip), vehicle: Klucel (hydroxypropylcellulose) (HPC) 94 % of control | [19] 100 % of control

O=c1c2ccccc2c2c3c1cccc3c1cccc3c(=O)c4ccccc4c2c31
inactive: [10] 98 % of control | [13] 101 % of control | dose: 400.0 mg/kg/injection, schedule: Q04DX003 (ip), vehicle: saline with Tween-80 104 % of control

Reference: PubChem BioAssay AID248 (DTP/NCI, 2004)
